The source made the active and inactive calls.
Assays:
[1] = biological target: Cystic fibrosis transmembrane conductance regulator/Golgi-associated PDZ and coiled-coil motif-containing protein (Homo sapiens, UniProt P13569+Q9HD26); assay: potency against CAL PDZ-peptide interaction – biochemical, fluorescence polarization, Cerulean-tagged CAL PDZ, cherry-picks, dose response (AID 504773)
Hexokinase HKDC1 [2] = biological target: T1, Hexokinase HKDC1 (Homo sapiens, UniProt Q2TB90); assay: inhibition of HKDC1 glucose phosphorylation – biochemical, W721R variant, dose response (AID 504729); format: functional
T1 sequence (Q2TB90 whole entry): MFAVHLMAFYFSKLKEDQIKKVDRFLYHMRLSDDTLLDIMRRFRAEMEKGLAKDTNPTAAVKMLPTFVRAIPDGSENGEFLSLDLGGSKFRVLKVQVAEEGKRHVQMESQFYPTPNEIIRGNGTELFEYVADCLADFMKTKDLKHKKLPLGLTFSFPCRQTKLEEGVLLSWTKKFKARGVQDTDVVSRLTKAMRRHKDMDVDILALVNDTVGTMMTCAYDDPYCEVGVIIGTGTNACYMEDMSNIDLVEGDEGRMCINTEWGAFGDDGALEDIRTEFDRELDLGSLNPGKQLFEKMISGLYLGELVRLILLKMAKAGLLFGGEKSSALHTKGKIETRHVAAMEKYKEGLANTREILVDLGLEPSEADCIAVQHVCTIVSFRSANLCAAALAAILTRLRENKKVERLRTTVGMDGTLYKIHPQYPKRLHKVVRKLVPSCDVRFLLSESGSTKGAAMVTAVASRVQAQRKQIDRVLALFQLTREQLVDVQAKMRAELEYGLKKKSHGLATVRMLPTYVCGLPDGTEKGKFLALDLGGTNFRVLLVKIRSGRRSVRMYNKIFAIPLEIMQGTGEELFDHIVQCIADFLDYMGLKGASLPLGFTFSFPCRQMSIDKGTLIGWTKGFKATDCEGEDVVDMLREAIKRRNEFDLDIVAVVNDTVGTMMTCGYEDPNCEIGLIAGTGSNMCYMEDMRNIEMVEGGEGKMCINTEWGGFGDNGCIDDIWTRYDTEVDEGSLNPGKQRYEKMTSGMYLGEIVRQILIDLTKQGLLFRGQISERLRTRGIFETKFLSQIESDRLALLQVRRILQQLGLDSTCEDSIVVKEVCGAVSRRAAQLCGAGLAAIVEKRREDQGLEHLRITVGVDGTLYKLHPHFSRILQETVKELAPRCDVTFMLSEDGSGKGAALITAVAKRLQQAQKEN

[3] = biological target: T2, Replicative DNA helicase DnaB (Mycobacterium tuberculosis, UniProt P9WMR3); assay: DnaB intein splicing inhibitors, dose response, biochemical, cell-free fluorescence (AID 449749); format: functional
T2 sequence (P9WMR3 whole entry): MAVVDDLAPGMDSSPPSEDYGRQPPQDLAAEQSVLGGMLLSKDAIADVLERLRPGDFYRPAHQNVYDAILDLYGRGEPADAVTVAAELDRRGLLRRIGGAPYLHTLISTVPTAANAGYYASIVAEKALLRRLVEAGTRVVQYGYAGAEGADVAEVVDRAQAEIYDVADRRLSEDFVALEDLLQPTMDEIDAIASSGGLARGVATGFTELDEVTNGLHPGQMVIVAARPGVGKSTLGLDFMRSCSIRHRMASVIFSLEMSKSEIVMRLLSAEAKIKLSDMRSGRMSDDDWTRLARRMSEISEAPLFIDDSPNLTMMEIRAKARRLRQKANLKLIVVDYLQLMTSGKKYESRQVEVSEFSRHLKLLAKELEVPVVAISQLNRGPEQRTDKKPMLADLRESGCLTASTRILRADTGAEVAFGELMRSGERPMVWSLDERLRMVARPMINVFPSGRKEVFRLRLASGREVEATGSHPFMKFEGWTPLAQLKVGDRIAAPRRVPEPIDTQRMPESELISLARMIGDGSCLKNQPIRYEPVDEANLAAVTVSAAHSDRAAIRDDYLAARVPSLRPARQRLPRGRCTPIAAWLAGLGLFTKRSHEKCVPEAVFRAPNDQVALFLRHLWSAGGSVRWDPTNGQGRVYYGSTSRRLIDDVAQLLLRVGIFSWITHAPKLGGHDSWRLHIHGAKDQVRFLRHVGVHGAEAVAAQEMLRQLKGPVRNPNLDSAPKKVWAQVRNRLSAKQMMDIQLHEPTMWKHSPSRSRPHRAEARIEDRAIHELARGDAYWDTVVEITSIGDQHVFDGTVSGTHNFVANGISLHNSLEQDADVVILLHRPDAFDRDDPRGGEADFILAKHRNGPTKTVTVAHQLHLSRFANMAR

Protein RecA = biological target: T3, Protein RecA (Mycobacterium tuberculosis, UniProt P9WHJ3); assay: Fluorescence Cell-Free Homogeneous Dose Retest to Identify Inhibitors of RecA-Intein Splicing Activity. [Related pubchem assays (depositor defined):AID2097, AID2223, AID489010, AID492950]; format: functional
T3 sequence (P9WHJ3 whole entry): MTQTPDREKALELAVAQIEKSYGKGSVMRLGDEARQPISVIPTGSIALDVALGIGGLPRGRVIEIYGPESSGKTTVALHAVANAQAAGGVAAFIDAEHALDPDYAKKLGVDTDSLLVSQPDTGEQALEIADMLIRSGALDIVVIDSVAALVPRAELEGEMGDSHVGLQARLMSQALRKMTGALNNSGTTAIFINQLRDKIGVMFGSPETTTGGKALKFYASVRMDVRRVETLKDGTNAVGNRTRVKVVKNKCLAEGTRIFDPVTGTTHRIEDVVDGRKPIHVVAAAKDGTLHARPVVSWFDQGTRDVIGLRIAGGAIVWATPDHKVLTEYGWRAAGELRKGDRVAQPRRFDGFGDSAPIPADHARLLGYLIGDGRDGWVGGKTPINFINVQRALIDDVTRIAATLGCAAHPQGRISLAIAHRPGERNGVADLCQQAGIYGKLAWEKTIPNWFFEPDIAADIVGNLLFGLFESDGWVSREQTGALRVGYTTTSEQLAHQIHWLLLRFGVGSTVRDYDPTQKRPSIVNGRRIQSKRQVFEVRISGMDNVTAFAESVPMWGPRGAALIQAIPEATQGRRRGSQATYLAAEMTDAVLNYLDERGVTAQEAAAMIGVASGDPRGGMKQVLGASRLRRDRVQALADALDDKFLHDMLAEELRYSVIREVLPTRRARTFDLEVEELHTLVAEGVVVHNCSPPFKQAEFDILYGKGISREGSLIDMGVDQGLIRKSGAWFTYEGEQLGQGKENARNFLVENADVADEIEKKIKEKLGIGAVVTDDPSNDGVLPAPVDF

Hexokinase HKDC1 [4] = biological target: T1, Hexokinase HKDC1; assay: SAR analysis of small molecule inhibitors of hexokinase domain containing I (HKDC1) - Set 3. [Related pubchem assays (depositor defined):AID493160, AID493190]; format: functional
Hexokinase HKDC1 [5] = biological target: T1, Hexokinase HKDC1; assay: analog inhibition of human HKDC1 activity – biochemical, set 2, SAR follow-up (AID 588355); format: functional
[6] = blockers of CAL PDZ ligand groove binding – biochemical, fluorescence polarization, untagged CAL PDZ, cherry-pick, dose response (AID 602267); format: functional
Caspase-6 = biological target: T4, Caspase-6 (Homo sapiens, UniProt P55212); assay: inhibition of CASP6 peptide cleavage – biochemical, VEID-R110 fluorescence, cherry-pick, dose response (AID 720632)
T4 sequence (P55212 whole entry): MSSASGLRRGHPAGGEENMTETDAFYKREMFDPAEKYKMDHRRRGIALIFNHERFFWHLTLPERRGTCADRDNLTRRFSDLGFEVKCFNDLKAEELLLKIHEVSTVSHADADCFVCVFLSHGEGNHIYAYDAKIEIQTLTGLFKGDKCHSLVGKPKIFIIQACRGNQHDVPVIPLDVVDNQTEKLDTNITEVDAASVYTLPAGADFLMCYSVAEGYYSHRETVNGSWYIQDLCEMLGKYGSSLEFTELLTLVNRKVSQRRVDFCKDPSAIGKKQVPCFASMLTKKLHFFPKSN

[7] = biological target: T5, Tyrosyl-DNA phosphodiesterase 2 (Homo sapiens, UniProt O95551); assay: potency against TDP2 phosphodiesterase activity – biochemical, epi absorbance, IC50, dose response (AID 743297)
T5 sequence (O95551 whole entry): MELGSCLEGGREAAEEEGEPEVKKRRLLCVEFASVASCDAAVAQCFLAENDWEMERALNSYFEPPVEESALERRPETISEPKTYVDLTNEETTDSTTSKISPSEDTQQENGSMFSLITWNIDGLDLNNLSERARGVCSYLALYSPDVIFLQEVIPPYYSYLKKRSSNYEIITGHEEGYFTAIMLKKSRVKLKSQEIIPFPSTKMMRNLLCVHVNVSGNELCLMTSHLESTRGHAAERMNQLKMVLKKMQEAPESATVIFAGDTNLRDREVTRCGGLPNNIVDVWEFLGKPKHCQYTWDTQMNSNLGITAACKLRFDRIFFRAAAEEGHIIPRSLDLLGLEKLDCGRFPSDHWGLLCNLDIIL

[8] = biological target: Glycogen synthase kinase-3 beta (Homo sapiens, UniProt P49841); assay: inhibition of human GSK3B activity – biochemical, microfluidics, dry powder samples, set 2, dose response (AID 623989); format: functional
[9] = biological target: Glycogen synthase kinase-3 alpha (Homo sapiens, UniProt P49840); assay: GSK3A enzyme blockers, homolog specificity check – biochemical, microfluidics, dry powder samples, set 2, selectivity assay for GSK3beta inhibitor project, dose response (AID 623978); format: functional
[10] = biological target: T6, DNA dC->dU-editing enzyme APOBEC-3A (Homo sapiens, UniProt P31941); assay: SAR analysis of small molecule inhibitors of APOBEC3A DNA Deaminase via a fluorescence-based single-stranded DNA deaminase assay - Set 2.; format: functional; conditions: read-out: IC50_Mean
[11] = biological target: T7, DNA dC->dU-editing enzyme APOBEC-3G (Homo sapiens, UniProt Q9HC16); assay: SAR analysis of small molecule inhibitors of APOBEC3G DNA Deaminase via a fluorescence-based single-stranded DNA deaminase assay - Set 2.; format: functional; conditions: read-out: IC50_Mean
[12] = biological target: T7, DNA dC->dU-editing enzyme APOBEC-3G; assay: inhibition of APOBEC3G ssDNA deamination – biochemical, fluorescence, single-stranded DNA substrate, SAR follow-up (AID 602136); format: functional; conditions: read-out: IC50_Mean
[13] = biological target: T6, DNA dC->dU-editing enzyme APOBEC-3A; assay: SAR analysis of small molecule inhibitors of APOBEC3A DNA Deaminase via a fluorescence-based single-stranded DNA deaminase assay.; format: functional; conditions: read-out: IC50_Mean
[14] = biological target: T8, Melanin-concentrating hormone receptor 1 (Homo sapiens, UniProt Q99705); assay: Late-stage fluorescence-based counterscreen for antagonists of the G-protein coupled receptor 7 (GPR7): cell-based dose response assay to identify antagonists of the melanin-concentrating hormone receptor 1 (MCHR1) Set 6.; format: functional
[15] = biological target: T9, Neuropeptides B/W receptor type 1 (Homo sapiens, UniProt P48145); assay: human NPBW1 receptor blockade, IC50 – cell-based, fluorescence, dose response, set 6, late-stage follow-up (AID 588583); format: functional
T9 sequence (P48145 whole entry): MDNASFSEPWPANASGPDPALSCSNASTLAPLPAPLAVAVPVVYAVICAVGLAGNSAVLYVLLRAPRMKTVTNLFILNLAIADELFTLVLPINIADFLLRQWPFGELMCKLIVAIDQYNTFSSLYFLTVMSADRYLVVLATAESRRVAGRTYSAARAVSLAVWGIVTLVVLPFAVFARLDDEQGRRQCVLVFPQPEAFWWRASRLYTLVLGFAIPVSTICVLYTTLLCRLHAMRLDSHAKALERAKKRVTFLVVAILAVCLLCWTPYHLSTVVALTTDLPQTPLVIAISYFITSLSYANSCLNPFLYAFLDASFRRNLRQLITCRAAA

[16] = biological target: T9, Neuropeptides B/W receptor type 1; assay: human NPBW1 receptor blockade, IC50 – cell-based, fluorescence, dose response, set 5, late-stage follow-up (AID 588566); format: functional
[17] = biological target: T8, Melanin-concentrating hormone receptor 1; assay: Late-stage fluorescence-based counterscreen for antagonists of the G-protein coupled receptor 7 (GPR7): cell-based dose response assay to identify antagonists of the melanin-concentrating hormone receptor 1 (MCHR1) Set 5.; format: functional

T6 sequence (P31941 whole entry): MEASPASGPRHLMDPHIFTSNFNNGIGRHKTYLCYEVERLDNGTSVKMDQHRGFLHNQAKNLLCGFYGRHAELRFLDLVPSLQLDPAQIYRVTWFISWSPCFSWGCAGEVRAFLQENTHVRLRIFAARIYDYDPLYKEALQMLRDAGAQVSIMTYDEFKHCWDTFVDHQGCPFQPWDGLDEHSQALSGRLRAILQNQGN
T8 sequence (Q99705 whole entry): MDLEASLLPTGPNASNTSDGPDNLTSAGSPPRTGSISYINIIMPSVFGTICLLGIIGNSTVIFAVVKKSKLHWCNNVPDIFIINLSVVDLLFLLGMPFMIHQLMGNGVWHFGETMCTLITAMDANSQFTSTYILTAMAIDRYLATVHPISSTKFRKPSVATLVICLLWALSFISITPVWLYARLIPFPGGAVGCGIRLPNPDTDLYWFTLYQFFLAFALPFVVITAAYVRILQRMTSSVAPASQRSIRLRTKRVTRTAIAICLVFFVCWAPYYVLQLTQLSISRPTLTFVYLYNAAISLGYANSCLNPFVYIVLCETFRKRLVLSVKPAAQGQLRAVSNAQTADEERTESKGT
T7 sequence (Q9HC16 whole entry): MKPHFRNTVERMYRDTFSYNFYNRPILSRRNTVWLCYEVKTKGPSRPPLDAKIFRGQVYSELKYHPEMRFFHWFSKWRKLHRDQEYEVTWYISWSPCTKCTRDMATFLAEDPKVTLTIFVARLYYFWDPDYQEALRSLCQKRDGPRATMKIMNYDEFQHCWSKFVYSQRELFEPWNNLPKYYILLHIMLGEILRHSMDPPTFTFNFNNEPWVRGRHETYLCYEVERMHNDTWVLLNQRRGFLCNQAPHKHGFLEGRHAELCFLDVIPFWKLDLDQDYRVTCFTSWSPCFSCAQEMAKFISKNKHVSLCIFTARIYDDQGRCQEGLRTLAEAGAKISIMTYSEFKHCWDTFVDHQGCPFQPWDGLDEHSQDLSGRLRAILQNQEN
Sequence of Glycogen synthase kinase-3 beta (P49841 whole entry): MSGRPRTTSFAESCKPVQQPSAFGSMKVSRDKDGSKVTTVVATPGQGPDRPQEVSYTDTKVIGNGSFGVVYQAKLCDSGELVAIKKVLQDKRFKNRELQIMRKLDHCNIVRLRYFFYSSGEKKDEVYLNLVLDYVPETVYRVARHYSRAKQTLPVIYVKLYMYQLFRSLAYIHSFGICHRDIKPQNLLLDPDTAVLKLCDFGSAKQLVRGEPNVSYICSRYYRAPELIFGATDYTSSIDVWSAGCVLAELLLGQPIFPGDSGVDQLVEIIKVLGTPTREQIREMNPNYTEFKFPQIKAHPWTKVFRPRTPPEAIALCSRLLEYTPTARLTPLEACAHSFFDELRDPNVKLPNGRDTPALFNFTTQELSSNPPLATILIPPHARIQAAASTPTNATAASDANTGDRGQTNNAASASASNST
Sequence of Glycogen synthase kinase-3 alpha (P49840 whole entry): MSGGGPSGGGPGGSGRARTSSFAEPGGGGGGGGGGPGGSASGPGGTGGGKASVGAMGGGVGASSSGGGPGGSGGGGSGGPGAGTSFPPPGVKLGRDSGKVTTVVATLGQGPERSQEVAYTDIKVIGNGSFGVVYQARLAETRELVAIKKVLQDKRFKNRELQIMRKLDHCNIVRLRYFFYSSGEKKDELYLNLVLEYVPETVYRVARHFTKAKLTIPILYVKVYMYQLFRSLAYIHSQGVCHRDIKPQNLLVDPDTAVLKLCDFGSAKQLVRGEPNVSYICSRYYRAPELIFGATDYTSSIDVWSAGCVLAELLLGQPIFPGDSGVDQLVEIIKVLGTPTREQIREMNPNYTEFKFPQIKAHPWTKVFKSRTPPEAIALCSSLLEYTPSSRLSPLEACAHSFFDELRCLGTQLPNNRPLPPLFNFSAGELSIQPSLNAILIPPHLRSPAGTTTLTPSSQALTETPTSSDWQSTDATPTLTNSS
Sequence of Cystic fibrosis transmembrane conductance regulator/Golgi-associated PDZ and coiled-coil motif-containing protein (P13569 whole entry, other chains not shown): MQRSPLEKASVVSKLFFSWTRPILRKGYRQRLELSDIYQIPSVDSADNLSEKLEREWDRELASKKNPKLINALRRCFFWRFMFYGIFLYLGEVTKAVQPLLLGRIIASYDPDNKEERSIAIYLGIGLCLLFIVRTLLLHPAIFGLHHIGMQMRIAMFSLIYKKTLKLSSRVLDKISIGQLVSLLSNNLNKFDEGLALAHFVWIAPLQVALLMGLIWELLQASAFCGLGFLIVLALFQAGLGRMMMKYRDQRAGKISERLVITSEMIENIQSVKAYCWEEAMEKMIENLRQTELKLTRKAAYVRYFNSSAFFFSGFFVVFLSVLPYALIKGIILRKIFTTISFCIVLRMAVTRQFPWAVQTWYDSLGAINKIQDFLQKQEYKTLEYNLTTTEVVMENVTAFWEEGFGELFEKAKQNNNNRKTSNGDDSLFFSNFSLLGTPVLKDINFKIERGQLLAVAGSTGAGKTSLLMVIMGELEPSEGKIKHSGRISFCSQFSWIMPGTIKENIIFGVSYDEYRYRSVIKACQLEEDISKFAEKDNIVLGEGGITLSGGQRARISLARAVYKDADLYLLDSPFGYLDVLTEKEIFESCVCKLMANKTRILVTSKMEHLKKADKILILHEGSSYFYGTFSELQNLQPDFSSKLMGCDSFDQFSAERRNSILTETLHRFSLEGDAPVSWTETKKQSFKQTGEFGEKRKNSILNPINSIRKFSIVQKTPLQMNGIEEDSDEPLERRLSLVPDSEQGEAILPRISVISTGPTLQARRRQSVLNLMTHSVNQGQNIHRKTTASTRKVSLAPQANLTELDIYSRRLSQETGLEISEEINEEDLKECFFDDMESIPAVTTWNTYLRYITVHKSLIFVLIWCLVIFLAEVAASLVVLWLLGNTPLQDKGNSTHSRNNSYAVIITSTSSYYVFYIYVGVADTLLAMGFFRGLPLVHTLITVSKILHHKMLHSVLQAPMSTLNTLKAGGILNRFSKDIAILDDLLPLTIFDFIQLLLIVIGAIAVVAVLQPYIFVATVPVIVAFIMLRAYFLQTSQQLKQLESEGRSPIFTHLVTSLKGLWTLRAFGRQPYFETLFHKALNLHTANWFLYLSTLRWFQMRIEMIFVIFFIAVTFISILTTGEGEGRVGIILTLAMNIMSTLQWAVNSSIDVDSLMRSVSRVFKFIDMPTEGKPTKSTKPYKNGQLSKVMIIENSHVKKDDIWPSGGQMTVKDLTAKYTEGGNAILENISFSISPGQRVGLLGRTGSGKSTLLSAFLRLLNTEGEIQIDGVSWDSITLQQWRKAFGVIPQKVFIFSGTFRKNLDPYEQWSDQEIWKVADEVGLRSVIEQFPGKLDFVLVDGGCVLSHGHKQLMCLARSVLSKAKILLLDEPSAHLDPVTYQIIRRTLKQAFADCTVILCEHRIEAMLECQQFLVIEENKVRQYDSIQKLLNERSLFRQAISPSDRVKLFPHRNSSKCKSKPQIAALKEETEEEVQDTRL

In the case of CC(=O)NC1C(=O)N(CCN2CCOCC2)c2ccc(Br)cc21 (stereo not given), the AC50 [1] was 24.8 µM (active), the IC50 (Hexokinase HKDC1 [2]) was 5.24 µM (active) and the AC50 [3] was 14.3 µM (active). The EC50 (Protein RecA) was 11 µM (active), the IC50 (Hexokinase HKDC1 [4]) was 6.88 µM (active) and the IC50 (Hexokinase HKDC1 [5]) was 8.67 µM (active). The AC50 [6] was 82.6 µM (active), the AC50 (Caspase-6) was 12.6 µM (active) and the IC50 [7] was 16.3 µM (inactive).
For Fc1cccc(Nc2nc(-c3ccncc3)nc3ccccc23)c1, the AC50 [8] was 0.894 µM (active), the AC50 [9] was 29.7 µM (active) and the IC50 (cells) was 44.3 µM (active).
With CC1(C)Oc2ccc3ccc(=O)oc3c2C(C=NCCO)=C1O the IC50 [10] was 50.4 µM (inactive), the IC50 [11] was 2.34 µM (active) and the IC50 [12] was 12.3 µM (inactive). The IC50 [13] was 28.8 µM (inactive).
With N#CC(c1cccc(F)c1F)c1c(Cl)cnn(Cc2cccc3ccccc23)c1=O (stereo not given) the IC50 [14] was 0.542 µM (active) and the IC50 [15] was 0.542 µM (active).
With COc1ccc(Oc2c(Cl)cnn(Cc3ccccc3OCc3ccccc3)c2=O)cc1 the IC50 [16] was 1.21 µM (active) and the IC50 [17] was 16.5 µM (inactive).

— ChEMBL document CHEMBL1201862, “PubChem BioAssay data set” (2004)
